Patent US20260285850A1, “SUBSTITUTED OXAZOLIDINONES AND IMIDAZOLINONES AS HERBICIDES” (FMC CORPORATION, priority 2023, published 2026)

Key:
Type in all cases: in vivo
[1] = system: ragweed (common ragweed, Ambrosia artemisiifolia); test: Test A preemergence soil spray, visual injury rating 0-100; details: 10 days
Method in brief: (§1)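 Plants were grown in a loam soil-sand blend and treated with test chemical in a non-phytotoxic solvent mixture containing surfactant, either sprayed on soil preemergence or applied postemergence to 2-10 cm plants. After 10 days in a greenhouse, injury was scored visually against untreated controls, 0 meaning no effect and 100 complete control.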

[2] = system: ryegrass, Italian (italian ryegrass, Lolium multiflorum); test: as above; details: 10 days
Method in brief: as §1

[3] = system: blackgrass (Alopecurus myosuroides); test: as above; details: 10 days
Method in brief: as §1

[4] = system: barnyardgrass (Echinochloa crus-galli); test: as above; details: 10 days
Method in brief: as §1

[5] = system: green foxtail (Setaria viridis); test: as above; details: 10 days
Method in brief: as §1

corn (Zea mays) [6] = test: as above; details: 10 days
Method in brief: as §1

[7] = system: wheat (Triticum aestivum); test: as above; details: 10 days
Method in brief: as §1

soybean (Glycine max) [8] = test: as above; details: 10 days
Method in brief: as §1

[9] = system: oat, wild (wild oat, Avena fatua); test: as above; details: 10 days
Method in brief: as §1

[10] = system: palmer (palmer amaranth, palmer pigweed, Amaranthus palmeri); test: as above; details: 10 days
Method in brief: as §1

kochia (Bassia scoparia) [11] = test: as above; details: 10 days
Method in brief: as §1

[12] = system: ragweed (common ragweed, Ambrosia artemisiifolia); test: Test A postemergence application, visual injury rating 0-100
Method in brief: as §1

[13] = system: ryegrass, Italian (italian ryegrass, Lolium multiflorum); test: as above
Method in brief: as §1

[14] = system: galium (catchweed bedstraw, Galium aparine); test: as above
Method in brief: as §1

[15] = system: blackgrass (Alopecurus myosuroides); test: as above
Method in brief: as §1

[16] = system: barnyardgrass (Echinochloa crus-galli); test: as above
Method in brief: as §1

[17] = system: green foxtail (Setaria viridis); test: as above
Method in brief: as §1

corn (Zea mays) [18] = test: as above
Method in brief: as §1

[19] = system: wheat (Triticum aestivum); test: as above
Method in brief: as §1

soybean (Glycine max) [20] = test: as above
Method in brief: as §1

[21] = system: oat, wild (wild oat, Avena fatua); test: as above
Method in brief: as §1

[22] = system: palmer (palmer amaranth, palmer pigweed, Amaranthus palmeri); test: as above
Method in brief: as §1

kochia (Bassia scoparia) [23] = test: as above
Method in brief: as §1

rice (Oryza sativa) = test: Test B flooded paddy test, visual plant response rating 0-100; details: 250 g ai/ha, Flood, applied to paddy water, evaluated after 13 days
Method in brief: (§2)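 Treatment occurs at the 2-leaf stage by adding compound to floodwater standing 3 cm above the soil, a level kept for the whole test. Plants stay in the greenhouse 13 days before visual comparison with controls.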

[24] = system: ducksalad (Heteranthera limosa); test: as above; details: 250 g ai/ha, Flood, applied to paddy water, evaluated after 13 days
Method in brief: as §2

[25] = system: sedge, umbrella (small-flower umbrella sedge, Cyperus difformis); test: as above; details: 250 g ai/ha, Flood, applied to paddy water, evaluated after 13 days
Method in brief: as §2

[26] = system: barnyardgrass (Echinochloa crusgalli); test: as above; details: 250 g ai/ha, Flood, applied to paddy water, evaluated after 13 days
Method in brief: as §2

[27] = 62 g ai/ha, 0 = no effect, 100 = complete control
[28] = 62 g ai/ha, postemergence, 10 days, 0 = no effect, 100 = complete control
[29] = Postemergence, 16 g ai/ha, greenhouse 10 days, 0 no effect, 100 complete control

## C=CC1(C(=O)NC2COC(C(=O)OC)C2)CN(c2cc(F)cc(F)c2)C(=O)O1 (centres unmarked) [Compound 170]
[1]; 16 g ai/ha, 0 to 100 scale
  Ragweed plant response rating: 0
[1]; [27]
  Ragweed plant response rating (0-100): 0
[2]; 16 g ai/ha, 0 to 100 scale
  Ryegrass, Italian plant response rating: 10
[2]; [27]
  Ryegrass, Italian plant response rating (0-100): 20
[3]; 16 g ai/ha, 0 to 100 scale
  Blackgrass plant response rating: 0
[3]; [27]
  Blackgrass plant response rating (0-100): 0
[4]; 16 g ai/ha, 0 to 100 scale
  Barnyardgrass plant response rating: 0
[4]; [27]
  Barnyardgrass plant response rating (0-100): 0
[5]; 16 g ai/ha, 0 to 100 scale
  Foxtail, Green plant response rating: 0
[5]; [27]
  Foxtail, Green plant response rating (0-100): 0
Corn (Zea mays) [6]; 16 g ai/ha, 0 to 100 scale
  Corn plant response rating: 0
Corn (Zea mays) [6]; [27]
  Corn plant response rating (0-100): 0
[7]; 16 g ai/ha, 0 to 100 scale
  Wheat plant response rating: 0
[7]; [27]
  Wheat plant response rating (0-100): 0
Soybean (Glycine max) [8]; 16 g ai/ha, 0 to 100 scale
  Soybean plant response rating: 0
Soybean (Glycine max) [8]; [27]
  Soybean plant response rating (0-100): 0
[9]; 16 g ai/ha, 0 to 100 scale
  Oat, Wild plant response rating: 0
[9]; [27]
  Oat, Wild plant response rating (0-100): 0
[10]; 16 g ai/ha, 0 to 100 scale
  Pigweed, Palmer plant response rating: 0
[10]; [27]
  Pigweed, Palmer plant response rating (0-100): 0
Kochia (Bassia scoparia) [11]; 16 g ai/ha, 0 to 100 scale
  Kochia plant response rating: 0
Kochia (Bassia scoparia) [11]; [27]
  Kochia plant response rating (0-100): 0
[12]; [28]
  Ragweed plant response rating (0-100): 0
[12]; [29]
  Ragweed plant response rating (0 to 100 scale): 0
[13]; [28]
  Ryegrass, Italian plant response rating (0-100): 0
[13]; [29]
  Ryegrass, Italian plant response rating (0 to 100 scale): 0
[14]; [28]
  Galium plant response rating (0-100): 40
[14]; [29]
  Galium plant response rating (0 to 100 scale): 0
[15]; [28]
  Blackgrass plant response rating (0-100): 0
[15]; [29]
  Blackgrass plant response rating (0 to 100 scale): 0
[16]; [28]
  Barnyardgrass plant response rating (0-100): 30
[16]; [29]
  Barnyardgrass plant response rating (0 to 100 scale): 0
[17]; [28]
  Foxtail, Green plant response rating (0-100): 0
[17]; [29]
  Foxtail, Green plant response rating (0 to 100 scale): 0
Corn (Zea mays) [18]; [28]
  Corn plant response rating (0-100): 0
Corn (Zea mays) [18]; [29]
  Corn plant response rating (0 to 100 scale): 0
[19]; [28]
  Wheat plant response rating (0-100): 0
[19]; [29]
  Wheat plant response rating (0 to 100 scale): 0
Soybean (Glycine max) [20]; [28]
  Soybean plant response rating (0-100): 30
Soybean (Glycine max) [20]; [29]
  Soybean plant response rating (0 to 100 scale): 0
[21]; [28]
  Oat, Wild plant response rating (0-100): 0
[21]; [29]
  Oat, Wild plant response rating (0 to 100 scale): 0
[22]; [28]
  Pigweed, Palmer plant response rating (0-100): 0
[22]; [29]
  Pigweed, Palmer plant response rating (0 to 100 scale): 0
Kochia (Bassia scoparia) [23]; [28]
  Kochia plant response rating (0-100): 0
Kochia (Bassia scoparia) [23]; [29]
  Kochia plant response rating (0 to 100 scale): 0
Rice (Oryza sativa)
  Plant response rating, Rice (0 to 100 scale, 0 is no effect and 100 is complete control): 0
[24]
  Plant response rating, Ducksalad (0 to 100 scale, 0 is no effect and 100 is complete control): 0
[25]
  Plant response rating, Sedge, Umbrella (0 to 100 scale, 0 is no effect and 100 is complete control): 0
[26]
  Plant response rating, Barnyardgrass (0 to 100 scale, 0 is no effect and 100 is complete control): 0
